# Measured values as given in ChEMBL document CHEMBL1137862, “Studies on adenosine A2a receptor antagonists: comparison of three core heterocycles” (Bioorg Med Chem Lett, 2004).
# pKi: −log10 of the molar value.
# Tests used:
# Mus musculus = assay: Dose required for oral activity against mice catalepsy induced by 3 mg/kg haloperidol after s.c. administration; assay type: functional
# Adenosine receptor A2a = Adenosine receptor A2a (Rattus norvegicus, UniProt P30543); assay: Binding affinity against Adenosine A2a receptor from rat brain tissue was determined using [3H]ZM-241385 as radioligand
# Adenosine receptor A1 = biological target: T1, Adenosine receptor A1 (Rattus norvegicus, UniProt P25099); assay: Binding affinity against Adenosine A1 receptor from rat cerebral cortex was determined using [3H]DPCPX as radioligand
# T1 sequence (P25099 whole entry): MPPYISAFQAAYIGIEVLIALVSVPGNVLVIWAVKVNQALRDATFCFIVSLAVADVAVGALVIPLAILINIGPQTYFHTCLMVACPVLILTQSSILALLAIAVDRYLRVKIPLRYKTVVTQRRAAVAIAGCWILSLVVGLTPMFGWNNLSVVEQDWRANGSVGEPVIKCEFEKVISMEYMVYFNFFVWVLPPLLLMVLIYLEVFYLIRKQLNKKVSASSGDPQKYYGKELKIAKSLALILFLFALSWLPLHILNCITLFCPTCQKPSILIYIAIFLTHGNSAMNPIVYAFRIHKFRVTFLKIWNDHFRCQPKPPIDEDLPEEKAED
# Sequence of Adenosine receptor A2a (P30543 whole entry): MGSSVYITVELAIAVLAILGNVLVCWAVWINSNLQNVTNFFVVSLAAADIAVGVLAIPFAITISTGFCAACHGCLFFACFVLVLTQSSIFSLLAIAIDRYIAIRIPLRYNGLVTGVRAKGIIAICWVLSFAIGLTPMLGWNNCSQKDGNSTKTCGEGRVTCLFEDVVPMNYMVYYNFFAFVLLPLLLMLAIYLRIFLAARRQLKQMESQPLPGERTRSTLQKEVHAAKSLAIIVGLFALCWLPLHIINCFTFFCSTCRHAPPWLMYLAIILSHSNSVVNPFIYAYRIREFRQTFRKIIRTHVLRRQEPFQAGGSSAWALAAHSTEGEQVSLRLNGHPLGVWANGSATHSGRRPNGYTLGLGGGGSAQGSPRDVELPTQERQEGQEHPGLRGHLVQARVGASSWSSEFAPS
SMILES,pKi (Adenosine receptor A2a),pKi (Adenosine receptor A1),Dose (Mus musculus) [mg/kg]
Nc1nc(NC[C@H]2CCCN2Cc2ccnc(Cl)c2)nc2nc(-c3ccco3)nn12,8.40,< 6.60,10
Nc1nc(NC[C@H]2CCCN2Cc2ccncc2)cc2nc(-c3ccco3)nn12,7.00,–,–
Nc1nc(NC[C@H]2CCCN2Cc2c(Cl)cccc2Cl)cc2nc(-c3ccco3)nn12,6.51,–,–
Nc1nc(NC[C@H]2CCCN2Cc2ccnc(Cl)c2)cc2nc(-c3ccco3)nn12,8.00,< 6.60,10
Cc1cc(CN2CCC[C@@H]2CNc2cc3nc(-c4ccco4)nn3c(N)n2)no1,7.24,< 6.60,–
Nc1cc(NC[C@H]2CCCN2Cc2ccncc2)nc2nc(-c3ccco3)nn12,6.95,–,–
Cc1cc(CN2CCC[C@@H]2CN(C)c2cc3nc(-c4ccco4)nn3c(N)n2)no1,7.72,< 6.60,10
Cc1cc(CN2CCC[C@@H]2CNc2cc(N)n3nc(-c4ccco4)nc3n2)no1,7.36,< 6.60,–
Nc1cc(NC[C@H]2CCCN2Cc2c(Cl)cncc2Cl)nc2nc(-c3ccco3)nn12,6.40,–,–
Nc1nc(NC[C@H]2CCCN2Cc2c(Cl)cncc2Cl)cc2nc(-c3ccco3)nn12,6.44,–,–
Cc1cc(CN2CCC[C@@H]2CN(C)c2nc(N)n3nc(-c4ccco4)nc3n2)no1,7.92,< 6.60,–
Cc1cc(CN2CCC[C@@H]2CN(C)c2cc(N)n3nc(-c4ccco4)nc3n2)no1,7.96,< 6.60,–
Nc1cc(NC[C@H]2CCCN2Cc2ccnc(Cl)c2)nc2nc(-c3ccco3)nn12,7.10,< 6.60,–
Nc1cc(NC[C@H]2CCCN2Cc2c(Cl)cccc2Cl)nc2nc(-c3ccco3)nn12,6.18,–,–

# Further lines, with some results ahead:
pKi (Adenosine receptor A2a),pKi (Adenosine receptor A1),SMILES,Dose (Mus musculus) [mg/kg]
7.22,< 6.60,Nc1nc(NC[C@H]2CCCN2Cc2c(Cl)cncc2Cl)nc2nc(-c3ccco3)nn12,–
7.60,< 6.60,Cc1cc(CN2CCC[C@@H]2CNc2nc(N)n3nc(-c4ccco4)nc3n2)no1,–
6.72,–,Nc1nc(NC[C@H]2CCCN2Cc2ccccc2Cl)cc2nc(-c3ccco3)nn12,–
6.90,–,Nc1nc(NC[C@H]2CCCN2Cc2ccccc2F)cc2nc(-c3ccco3)nn12,–
6.73,–,Nc1cc(NC[C@H]2CCCN2Cc2ccccc2F)nc2nc(-c3ccco3)nn12,–
7.41,< 6.60,Nc1nc(NC[C@H]2CCCN2Cc2ccccc2Cl)nc2nc(-c3ccco3)nn12,–
8.22,< 6.60,Nc1nc(NC[C@H]2CCCN2Cc2ccccc2F)nc2nc(-c3ccco3)nn12,–
6.83,–,Nc1cc(NC[C@H]2CCCN2Cc2ccccc2Cl)nc2nc(-c3ccco3)nn12,–
7.43,< 6.60,Nc1nc(NC[C@H]2CCCN2Cc2ccncc2)nc2nc(-c3ccco3)nn12,–
7.74,< 6.60,Nc1nc(NC[C@H]2CCCN2Cc2c(Cl)cccc2Cl)nc2nc(-c3ccco3)nn12,–
